Measurements published in ChEMBL document CHEMBL4610120, “New Broad-Spectrum Antibiotics Containing a Pyrrolobenzodiazepine Ring with Activity against Multidrug-Resistant Gram-Negative Bacteria” (J Med Chem, 2020).
≈ marks a conversion by molar mass, not a printed value.

What was measured:
[1] = test system: Acinetobacter baumannii; experiment: Antimicrobial activity against multidrug-resistant Acinetobacter baumannii NCTC 13424 in presence of efflux pump inhibitor PAbetaN by microdilution broth method; type: functional
[2] = Selectivity ratio of cytotoxicity against human WI38 cells to MIC for vancomycin resistant Enterococcus faecium NCTC 12204; type: toxicity, cell-based
[3] = test system: Pseudomonas aeruginosa; experiment: Antimicrobial activity against Pseudomonas aeruginosa PAO1 in presence of membrane permeabilizer PMBN by microdilution broth method; type: functional
[4] = target: DNA gyrase (Staphylococcus aureus, UniProt P0A0K8+P20831); experiment: Inhibition of Staphylococcus aureus DNA gyrase using relaxed pNO1 as substrate by gel based fluorescence assay; type: protein-complex assay
[5] = test system: DNA; experiment: Stabilization of 5'-FAM-TAT-ATA-TAG-ATA-TTT-TTT-TAT-CTA-TAT-ATA-3'-TAMRA DNA (unknown origin) assessed as reduction in change in melting temperature at 1:1 to 5:1 ligand to DNA ratio measured after 3 hrs by FRET-based assay relative to control; type: ADME, nucleic-acid assay
[6] = test system: Acinetobacter baumannii; experiment: Antimicrobial activity against Acinetobacter baumannii ATCC 17978 in presence of efflux pump inhibitor PAbetaN by microdilution broth method; type: functional
[7] = test system: Escherichia coli; experiment: Antimicrobial activity against multidrug-resistant Escherichia coli CFI_161_NDM_5_OXA_181 by microdilution broth method; type: functional
[8] = Cytotoxicity against human WI38 cells assessed as cell viability at 20 uM measured after 24 hrs by MTT assay relative to control; type: cell-based, WI-38; details: read-out: Activity
[9] = Selectivity ratio of cytotoxicity against human WI38 cells to MIC for multidrug-resistant Klebsiella pneumoniae NCTC 13368; type: toxicity, cell-based
[10] = test system: Burkholderia cenocepacia; experiment: Antimicrobial activity against multidrug-resistant Burkholderia cenocepacia K56-2 by microdilution broth method; type: functional
[11] = test system: Klebsiella pneumoniae; experiment: Antimicrobial activity against multidrug-resistant Klebsiella pneumoniae 16 in presence of efflux pump inhibitor PAbetaN by microdilution broth method; type: functional
[12] = Selectivity ratio of cytotoxicity against human WI38 cells to MIC for Acinetobacter baumannii ATCC 17978; type: toxicity, cell-based
[13] = test system: Pseudomonas aeruginosa; experiment: Ratio of MIC for multidrug-resistant Pseudomonas aeruginosa NCTC 13437 to MIC for multidrug-resistant Pseudomonas aeruginosa NCTC 13437 in presence of membrane permeabilizer PMBN; type: functional
[14] = test system: Acinetobacter baumannii; experiment: Antimicrobial activity against multidrug-resistant Acinetobacter baumannii AYE in presence of efflux pump inhibitor PAbetaN by microdilution broth method; type: functional
[15] = Ratio of MIC for Pseudomonas aeruginosa PAO1 to MIC for Pseudomonas aeruginosa PW1783 harboring MexAB-OprM mutant; type: functional
[16] = Antimicrobial activity against multidrug-resistant Burkholderia cepacia complex LMG 17997 by microdilution broth method; type: functional
[17] = Antimicrobial activity against multidrug-resistant Burkholderia cepacia complex CEP509 by microdilution broth method; type: functional
[18] = Antimicrobial activity against multidrug-resistant Burkholderia cepacia complex NCTC 17765 by microdilution broth method; type: functional
[19] = Selectivity ratio of cytotoxicity against human WI38 cells to MIC for vancomycin sensitive Enterococcus faecalis NCTC 775; type: toxicity, cell-based
[20] = test system: Staphylococcus aureus; experiment: Antibacterial activity against methicillin resistant Staphylococcus aureus NCTC 13277 by microdilution broth method; type: functional
[21] = test system: Escherichia coli; experiment: Antimicrobial activity against multidrug-resistant Escherichia coli CFI_033_NDM by microdilution broth method; type: functional
[22] = target: DNA gyrase (Escherichia coli, UniProt P0AES6+P0AES4); experiment: Inhibition of Escherichia coli DNA gyrase using relaxed pNO1 as substrate by gel based fluorescence assay; type: protein-complex assay
[23] = test system: Klebsiella pneumoniae; experiment: Antimicrobial activity against Klebsiella pneumoniae M137K by microdilution broth method; type: functional
[24] = test system: Klebsiella pneumoniae; experiment: Antimicrobial activity against multidrug-resistant Klebsiella pneumoniae NCTC 13368 in presence of efflux pump inhibitor CCCP by microdilution broth method; type: functional
[25] = test system: Klebsiella pneumoniae; experiment: Ratio of MIC for multidrug-resistant Klebsiella pneumoniae 16 to MIC for multidrug-resistant Klebsiella pneumoniae 16 in presence of membrane permeabilizer PMBN; type: functional
[26] = Antimicrobial activity against multidrug-resistant Burkholderia cepacia complex NCTC 10743 by microdilution broth method; type: functional
[27] = Selectivity ratio of cytotoxicity against human WI38 cells to MIC for Klebsiella pneumoniae M6; type: toxicity, cell-based
[28] = test system: Staphylococcus aureus; experiment: Antibacterial activity against methicillin resistant Staphylococcus aureus NCTC 13616 by microdilution broth method; type: functional
[29] = Selectivity ratio of cytotoxicity against human WI38 cells to MIC for multidrug-resistant Pseudomonas aeruginosa NCTC 13437; type: toxicity, cell-based
[30] = test system: Pseudomonas aeruginosa; experiment: Antimicrobial activity against Pseudomonas aeruginosa PAO1 in presence of efflux pump inhibitor CCCP by microdilution broth method; type: functional
[31] = test system: Burkholderia multivorans; experiment: Antimicrobial activity against multidrug-resistant Burkholderia multivorans C1576 by microdilution broth method; type: functional
[32] = test system: Klebsiella pneumoniae; experiment: Antimicrobial activity against multidrug-resistant Klebsiella pneumoniae 51851 by microdilution broth method; type: functional
[33] = test system: Enterococcus faecium; experiment: Antibacterial activity against vancomycin resistant Enterococcus faecium NCTC 12204 by microdilution broth method; type: functional
[34] = Selectivity ratio of cytotoxicity against human WI38 cells to MIC for methicillin sensitive Staphylococcus aureus NCTC 6571; type: toxicity, cell-based
[35] = test system: Acinetobacter baylyi; experiment: Antimicrobial activity against multidrug-resistant Acinetobacter baylyi ADP1 by microdilution broth method; type: functional
[36] = test system: Pseudomonas aeruginosa; experiment: Antimicrobial activity against Pseudomonas aeruginosa PAO1 in presence of efflux pump inhibitor PAbetaN by microdilution broth method; type: functional
[37] = target: T1, Protein RecA (Escherichia coli K-12) (UniProt P0A7G6); experiment: Induction of Escherichia coli K12 MG1655 recA promotor measured at 30 mins interval for 20 hrs by fluorescence assay relative to control; details: Escherichia coli str. K-12 substr. MG1655
T1 sequence (whole entry): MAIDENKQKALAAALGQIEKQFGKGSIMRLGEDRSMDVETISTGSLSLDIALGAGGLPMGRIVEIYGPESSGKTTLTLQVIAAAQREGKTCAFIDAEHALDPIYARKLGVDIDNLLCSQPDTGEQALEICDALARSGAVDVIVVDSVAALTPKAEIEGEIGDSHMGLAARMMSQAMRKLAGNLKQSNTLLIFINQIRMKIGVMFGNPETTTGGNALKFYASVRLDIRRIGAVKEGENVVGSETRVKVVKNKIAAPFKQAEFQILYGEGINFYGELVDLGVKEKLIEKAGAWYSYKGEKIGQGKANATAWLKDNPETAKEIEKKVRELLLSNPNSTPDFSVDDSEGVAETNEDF

[38] = test system: Acinetobacter baumannii; experiment: Antimicrobial activity against multidrug-resistant Acinetobacter baumannii AYE by microdilution broth method; type: functional
[39] = test system: Klebsiella pneumoniae; experiment: Antimicrobial activity against multidrug-resistant Klebsiella pneumoniae NCTC 13368 in presence of efflux pump inhibitor PAbetaN by microdilution broth method; type: functional
[40] = test system: Escherichia coli; experiment: Antimicrobial activity against multidrug-resistant Escherichia coli CFI_017_VIM4 by microdilution broth method; type: functional
[41] = test system: Acinetobacter baumannii; experiment: Antimicrobial activity against Acinetobacter baumannii ATCC 17978 by microdilution broth method; type: functional
[42] = Selectivity ratio of cytotoxicity against human WI38 cells to MIC for vancomycin resistant Enterococcus faecalis NCTC 12201; type: toxicity, cell-based
[43] = test system: Klebsiella pneumoniae; experiment: Antimicrobial activity against multidrug-resistant Klebsiella pneumoniae 16 by microdilution broth method; type: functional

DNA gyrase (Staphylococcus aureus, UniProt P0A0K8+P20831), sequence (P0A0K8 whole entry): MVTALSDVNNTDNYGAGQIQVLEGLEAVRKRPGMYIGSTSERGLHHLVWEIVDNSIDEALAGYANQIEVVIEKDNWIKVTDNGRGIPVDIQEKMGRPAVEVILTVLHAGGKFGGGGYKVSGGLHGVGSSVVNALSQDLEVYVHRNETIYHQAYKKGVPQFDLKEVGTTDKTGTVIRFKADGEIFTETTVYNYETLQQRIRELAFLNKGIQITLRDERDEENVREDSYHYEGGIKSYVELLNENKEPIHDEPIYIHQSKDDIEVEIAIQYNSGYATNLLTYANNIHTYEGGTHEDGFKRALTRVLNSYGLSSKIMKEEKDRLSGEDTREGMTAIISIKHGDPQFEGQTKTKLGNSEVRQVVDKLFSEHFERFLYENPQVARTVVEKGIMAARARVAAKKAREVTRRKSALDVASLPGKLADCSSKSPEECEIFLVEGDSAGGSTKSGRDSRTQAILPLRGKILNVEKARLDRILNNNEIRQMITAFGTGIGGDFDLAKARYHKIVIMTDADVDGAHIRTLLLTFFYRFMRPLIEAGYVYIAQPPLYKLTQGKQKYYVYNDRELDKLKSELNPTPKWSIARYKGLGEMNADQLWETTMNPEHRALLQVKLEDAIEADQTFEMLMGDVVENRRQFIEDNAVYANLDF
DNA gyrase (Staphylococcus aureus, UniProt P0A0K8+P20831), sequence (P20831 whole entry): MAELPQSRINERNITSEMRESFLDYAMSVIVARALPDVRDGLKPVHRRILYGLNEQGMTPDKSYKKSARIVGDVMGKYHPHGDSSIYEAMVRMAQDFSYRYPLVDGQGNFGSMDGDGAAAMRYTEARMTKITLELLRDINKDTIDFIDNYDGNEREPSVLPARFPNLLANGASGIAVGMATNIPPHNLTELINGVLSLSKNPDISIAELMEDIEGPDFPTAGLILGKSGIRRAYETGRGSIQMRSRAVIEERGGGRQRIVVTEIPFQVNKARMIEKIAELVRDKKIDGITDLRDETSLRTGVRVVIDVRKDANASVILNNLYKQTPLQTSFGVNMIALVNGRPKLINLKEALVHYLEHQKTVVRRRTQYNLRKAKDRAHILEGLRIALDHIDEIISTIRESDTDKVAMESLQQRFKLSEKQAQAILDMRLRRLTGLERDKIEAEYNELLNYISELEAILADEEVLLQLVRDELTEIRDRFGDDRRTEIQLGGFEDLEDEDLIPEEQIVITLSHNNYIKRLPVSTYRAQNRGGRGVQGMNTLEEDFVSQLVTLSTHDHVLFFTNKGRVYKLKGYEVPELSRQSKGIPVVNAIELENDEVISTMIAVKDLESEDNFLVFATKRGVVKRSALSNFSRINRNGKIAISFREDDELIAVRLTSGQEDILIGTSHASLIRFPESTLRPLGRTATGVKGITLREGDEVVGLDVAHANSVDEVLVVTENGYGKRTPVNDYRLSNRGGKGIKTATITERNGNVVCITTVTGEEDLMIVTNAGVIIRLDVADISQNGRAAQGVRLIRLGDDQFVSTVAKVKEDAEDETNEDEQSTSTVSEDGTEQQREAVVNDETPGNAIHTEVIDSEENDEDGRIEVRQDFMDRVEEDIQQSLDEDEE

## COc1cc2c(cc1OCCCC(=O)Nc1cc(C(=O)Nc3ccc4oc(C(=O)N5CCSCC5)cc4c3)n(C)c1)N=C[C@@H]1CCCN1C2=O
[1]
  MIC: 2 µg/mL
[2]
  selectivity ratio: 100
[3]
  MIC: 0.25 to 8 µg/mL
[4]
  IC50: Nd(Insoluble)
[5]
  fold change (FC): 3 to 4
[6]
  MIC: 2 µg/mL
[7]
  MIC: 1 µg/mL (≈ 1.43 µM)
[8]
  viability at 24 h, 20 µM: > 85%
[9]
  selectivity ratio: 10
[10]
  MIC: 1 µg/mL (≈ 1.43 µM)
[11]
  MIC: 2 µg/mL
[12]
  selectivity ratio: 10
[13]
  Ratio: >=8 - 64
[14]
  MIC: 2 µg/mL
[15]
  Ratio: > 8
[16]
  MIC: 0.25 µg/mL (≈ 0.358 µM)
[17]
  MIC: 8 µg/mL (≈ 11.4 µM)
[18]
  MIC: 1 µg/mL (≈ 1.43 µM)
[19]
  selectivity ratio: 100
[20]
  MIC: 2 µg/mL (≈ 2.86 µM)
[21]
  MIC: 1 µg/mL (≈ 1.43 µM)
[22]
  IC50: Nd(Insoluble)
[23]
  MIC: 32 µg/mL (≈ 45.8 µM)
[24]
  MIC: > 32 µg/mL
[25]
  Ratio: 4
[26]
  MIC: 16 µg/mL (≈ 22.9 µM)
[27]
  selectivity ratio: 10
[28]
  MIC: 2 µg/mL (≈ 2.86 µM)
[29]
  selectivity ratio: 10
[30]
  MIC: > 32 µg/mL
[31]
  MIC: 16 µg/mL (≈ 22.9 µM)
[32]
  MIC: 4 µg/mL (≈ 5.72 µM)
[33]
  MIC: 0.03 µg/mL (≈ 0.0429 µM)
[34]
  selectivity ratio: 100
[35]
  MIC: 1 µg/mL (≈ 1.43 µM)
[36]
  MIC: 32 µg/mL
[37]
  fold change (FC): 8 to 10
[38]
  MIC: 2 to 4 µg/mL (≈ 2.86 to 5.72 µM)
[39]
  MIC: 8 µg/mL
[40]
  MIC: 2 µg/mL (≈ 2.86 µM)
[41]
  MIC: 2 µg/mL (≈ 2.86 µM)
[42]
  selectivity ratio: 100
[43]
  MIC: 1 µg/mL (≈ 1.43 µM)

## COc1cc2c(cc1OCCCC(=O)Nc1cc(C(=O)Nc3ccc4sc(C(=O)N(C)C)cc4c3)n(C)c1)N=C[C@@H]1CCCN1C2=O
[1]
  MIC: 0.25 µg/mL
[2]
  selectivity ratio: 100
[3]
  MIC: 2 to 16 µg/mL
[4]; read-out: IC50 (converted)
  IC50: 4.81 µM
[5]
  fold change (FC): 3 to 4
[6]
  MIC: 0.25 µg/mL
[7]
  MIC: 0.5 µg/mL (≈ 0.761 µM)
[8]
  viability at 24 h, 20 µM: > 85%
[9]
  selectivity ratio: 10
[10]
  MIC: 2 µg/mL (≈ 3.05 µM)
[11]
  MIC: 2 µg/mL
[12]
  selectivity ratio: 10
[13]
  Ratio: 32 - 1000
[14]
  MIC: 0.25 µg/mL
[15]
  Ratio: > 8
[16]
  MIC: 0.125 µg/mL (≈ 0.19 µM)
[17]
  MIC: 2 µg/mL (≈ 3.05 µM)
[18]
  MIC: 0.125 µg/mL (≈ 0.19 µM)
[19]
  selectivity ratio: 100
[20]
  MIC: 0.06 µg/mL (≈ 0.0914 µM)
[21]
  MIC: 0.5 µg/mL (≈ 0.761 µM)
[22]
  IC50: Nd(Insoluble)
[23]
  MIC: 16 to 32 µg/mL (≈ 24.4 to 48.7 µM)
[24]
  MIC: 2 µg/mL
[25]
  Ratio: 4
[26]
  MIC: 1 to 2 µg/mL (≈ 1.52 to 3.05 µM)
[27]
  selectivity ratio: 10
[28]
  MIC: 0.03 µg/mL (≈ 0.0457 µM)
[29]
  selectivity ratio: 10
[30]
  MIC: > 32 µg/mL
[31]
  MIC: 1 µg/mL (≈ 1.52 µM)
[32]
  MIC: 2 µg/mL (≈ 3.05 µM)
[33]
  MIC: 0.03 µg/mL (≈ 0.0457 µM)
[34]
  selectivity ratio: 100
[35]
  MIC: 0.125 µg/mL (≈ 0.19 µM)
[36]
  MIC: 2 µg/mL
[37]
  fold change (FC): 8 to 10
[38]
  MIC: 0.5 to 1 µg/mL (≈ 0.761 to 1.52 µM)
[39]
  MIC: 0.5 µg/mL
[40]
  MIC: 1 µg/mL (≈ 1.52 µM)
[41]
  MIC: 0.5 to 1 µg/mL (≈ 0.761 to 1.52 µM)
[42]
  selectivity ratio: 100
[43]
  MIC: 0.25 to 1 µg/mL (≈ 0.381 to 1.52 µM)
